According to ChEMBL document CHEMBL3045033, “Synthesis of new potential anticancer agents based on 4-thiazolidinone and oleanane scaffolds” (Med Chem Res, 2012):
Values joined by “and” are separate entries in the source; they are usually repeats but may differ in a detail not shown here. Equal entries are not always repeated.

How the values were obtained:
Assay type in all cases: functional
CCRF-CEM [1] = assay: Cytotoxicity against Homo sapiens (human) CCRF-CEM cells at 10^-4 to 10^-8 M after 48 hr by SRB assay; details: read-out: pTGI (converted)
EKVX [2] = assay: Cytotoxicity against Homo sapiens (human) EKVX cells at 10^-4 to 10^-8 M after 48 hr by SRB assay; details: read-out: pTGI (converted)
BT-549 = assay: Cytotoxicity against Homo sapiens (human) BT549 cells at 10^-4 to 10^-8 M after 48 hr by SRB assay; details: BT-549, 48 h, read-out: pTGI (converted)
KM12 = assay: Cytotoxicity against Homo sapiens (human) KM12 cells at 10^-4 to 10^-8 M after 48 hr by SRB assay; details: KM12, 48 h, read-out: pTGI (converted)
HOP-62 = assay: Cytotoxicity against Homo sapiens (human) HOP62 cells after 48 hr by SRB assay
SR = assay: Cytotoxicity against Homo sapiens (human) SR cells at 10^-4 to 10^-8 M after 48 hr by SRB assay; details: read-out: pTGI (converted)
UO-31 = assay: Cytotoxicity against Homo sapiens (human) UO31 cells after 48 hr by SRB assay
MDA-MB-231 = assay: Cytotoxicity against Homo sapiens (human) MDA-MB-231 cells at 10^-4 to 10^-8 M after 48 hr by SRB assay; details: MDA-MB-231, 48 h, read-out: pTGI (converted)
U-251 = assay: Cytotoxicity against Homo sapiens (human) U251 cells at 10^-4 to 10^-8 M after 48 hr by SRB assay; details: U-251, 48 h, read-out: pTGI (converted)
[3] = Cytotoxicity against Homo sapiens (human) NCI-ADR-RES cells at 10^-4 to 10^-8 M after 48 hr by SRB assay; details: read-out: pTGI (converted)
UACC-62 = assay: Cytotoxicity against Homo sapiens (human) UACC62 cells at 10^-4 to 10^-8 M after 48 hr by SRB assay; details: UACC-62, 48 h, read-out: pTGI (converted)
HCT-15 = assay: Cytotoxicity against Homo sapiens (human) HCT15 cells at 10^-4 to 10^-8 M after 48 hr by SRB assay; details: HCT-15, 48 h, read-out: pTGI (converted)
SK-OV-3 = assay: Cytotoxicity against Homo sapiens (human) SKOV3 cells at 10^-4 to 10^-8 M after 48 hr by SRB assay; details: SK-OV-3, 48 h, read-out: pTGI (converted)
SK-MEL-2 = assay: Cytotoxicity against Homo sapiens (human) SK-MEL-2 cells at 10^-4 to 10^-8 M after 48 hr by SRB assay; details: SK-MEL-2, 48 h, read-out: pTGI (converted)
NCI-H23 = assay: Cytotoxicity against Homo sapiens (human) NCI-H23 cells at 10^-4 to 10^-8 M after 48 hr by SRB assay; details: NCI-H23, 48 h, read-out: pTGI (converted)
HOP-92 = assay: Cytotoxicity against Homo sapiens (human) HOP92 cells at 10^-4 to 10^-8 M after 48 hr by SRB assay; details: HOP-92, 48 h, read-out: pTGI (converted)
LOX IMVI = assay: Cytotoxicity against Homo sapiens (human) LOXIMVI cells at 10^-4 to 10^-8 M after 48 hr by SRB assay; details: read-out: pTGI (converted)
OVCAR-3 = assay: Cytotoxicity against Homo sapiens (human) OVCAR3 cells at 10^-4 to 10^-8 M after 48 hr by SRB assay; details: OVCAR-3, 48 h, read-out: pTGI (converted)
NCI-H226 = assay: Cytotoxicity against Homo sapiens (human) NCI-H226 cells after 48 hr by SRB assay
UACC-257 [4] = assay: Cytotoxicity against Homo sapiens (human) UACC257 cells after 48 hr by SRB assay
MCF7 = assay: Cytotoxicity against Homo sapiens (human) MCF7 cells at 10^-4 to 10^-8 M after 48 hr by SRB assay; details: MCF7, 48 h, read-out: pTGI (converted)
SW-620 = assay: Cytotoxicity against Homo sapiens (human) SW620 cells at 10^-4 to 10^-8 M after 48 hr by SRB assay; details: SW-620, 48 h, read-out: pTGI (converted)
SNB-19 = assay: Cytotoxicity against Homo sapiens (human) SNB19 cells after 48 hr by SRB assay
ACHN [5] = assay: Cytotoxicity against Homo sapiens (human) ACHN cells at 10^-4 to 10^-8 M after 48 hr by SRB assay; details: read-out: pTGI (converted)
SN12C = assay: Cytotoxicity against Homo sapiens (human) SN12C cells at 10^-4 to 10^-8 M after 48 hr by SRB assay; details: read-out: pTGI (converted)
CCRF-CEM [6] = assay: Cytotoxicity against Homo sapiens (human) CCRF-CEM cells after 48 hr by SRB assay
T47D = assay: Cytotoxicity against Homo sapiens (human) T47D cells at 10^-4 to 10^-8 M after 48 hr by SRB assay; details: read-out: pTGI (converted)
NCI-H322M = assay: Cytotoxicity against Homo sapiens (human) NCI-H322M cells at 10^-4 to 10^-8 M after 48 hr by SRB assay; details: read-out: pTGI (converted)
PC-3 = assay: Cytotoxicity against Homo sapiens (human) PC3 cells at 10^-4 to 10^-8 M after 48 hr by SRB assay; details: PC-3, 48 h, read-out: pTGI (converted)
EKVX [7] = assay: Cytotoxicity against Homo sapiens (human) EKVX cells after 48 hr by SRB assay
UACC-257 [8] = assay: Cytotoxicity against Homo sapiens (human) UACC257 cells at 10^-4 to 10^-8 M after 48 hr by SRB assay; details: UACC-257, 48 h, read-out: pTGI (converted)
DU-145 = assay: Cytotoxicity against Homo sapiens (human) DU145 cells at 10^-4 to 10^-8 M after 48 hr by SRB assay; details: DU-145, 48 h, read-out: pTGI (converted)
Hs-578T = assay: Cytotoxicity against Homo sapiens (human) Hs578T cells at 10^-4 to 10^-8 M after 48 hr by SRB assay; details: read-out: pTGI (converted)
K562 = assay: Cytotoxicity against Homo sapiens (human) K562 cells at 10^-4 to 10^-8 M after 48 hr by SRB assay; details: K562, 48 h, read-out: pTGI (converted)
SK-MEL-28 = assay: Cytotoxicity against Homo sapiens (human) SK-MEL-28 cells after 48 hr by SRB assay
SF-539 = assay: Cytotoxicity against Homo sapiens (human) SF539 cells after 48 hr by SRB assay
ACHN [9] = assay: Cytotoxicity against Homo sapiens (human) ACHN cells after 48 hr by SRB assay
COLO 205 = assay: Cytotoxicity against Homo sapiens (human) COLO205 cells after 48 hr by SRB assay

COC(=O)[C@]12CCC(C)(C)C[C@H]1C1=CC[C@@H]3[C@@]4(C)CC/C(=N\O)C(C)(C)[C@@H]4CC[C@@]3(C)[C@]1(C)CC2
TGI (CCRF-CEM [1]): 81.3 µM
TGI (EKVX [2]): 72.4 µM
TGI (BT-549): > 100 µM
TGI (KM12): > 100 µM
GI50 (HOP-62; Homo sapiens, HOP-62, 48 h): 21.4 µM
TGI (SR): 55 µM
GI50 (UO-31; Homo sapiens, UO-31, 48 h): 22.4 µM
TGI (MDA-MB-231): 40.7 µM
TGI (U-251): 33.9 µM
TGI [3]: > 100 µM
TGI (UACC-62): 56.2 µM
TGI (HCT-15): 55 µM
TGI (SK-OV-3): > 100 µM
TGI (SK-MEL-2): > 100 µM
TGI (NCI-H23): 38 µM
TGI (HOP-92): 39.8 µM
TGI (LOX IMVI): 39.8 µM
TGI (OVCAR-3): 35.5 µM
GI50 (NCI-H226; Homo sapiens, NCI-H226, 48 h): 27.5 µM
GI50 (UACC-257 [4]; Homo sapiens, UACC-257, 48 h): 33.1 µM
TGI (MCF7): 40.7 µM
TGI (SW-620): 40.7 µM
GI50 (SNB-19; Homo sapiens, SNB-19, 48 h): 25.7 µM
TGI (ACHN [5]): 41.7 µM
TGI (SN12C): 42.7 µM
GI50 (CCRF-CEM [6]): 28.2 µM
TGI (T47D): 72.4 µM
TGI (NCI-H322M): > 100 µM
TGI (PC-3): 44.7 µM
GI50 (EKVX [7]; Homo sapiens, EKVX, 48 h): 28.2 µM
TGI (UACC-257 [8]): > 100 µM
TGI (DU-145): 42.7 µM
TGI (Hs-578T): 66.1 µM
TGI (K562): > 100 µM
GI50 (SK-MEL-28; Homo sapiens, SK-MEL-28, 48 h): 24.5 µM
GI50 (SF-539; Homo sapiens, SF-539, 48 h): 20.9 µM
GI50 (ACHN [9]; Homo sapiens, ACHN, 48 h): 20.9 µM
GI50 (COLO 205; Homo sapiens, COLO 205, 48 h): 22.4 µM

CC1(C)CC[C@@]23CC[C@]4(C)[C@@](OC2=O)([C@@H]3C1)[C@@H](Br)C[C@@H]1[C@@]2(C)CC/C(=N\O)C(C)(C)[C@@H]2CC[C@]14C
TGI (CCRF-CEM [1]): > 100 µM
TGI (EKVX [2]): > 100 µM
TGI (BT-549): 69.2 µM
TGI (KM12): > 100 µM
GI50 (HOP-62; Homo sapiens, HOP-62, 48 h): 40.7 µM
TGI (SR): 7.94 µM
GI50 (UO-31; Homo sapiens, UO-31, 48 h): 40.7 µM
TGI (MDA-MB-231): 47.9 µM
TGI (U-251): > 100 µM
TGI [3]: > 100 µM
TGI (UACC-62): > 100 µM
TGI (HCT-15): > 100 µM
TGI (SK-OV-3): > 100 µM
TGI (SK-MEL-2): > 100 µM
TGI (NCI-H23): > 100 µM
TGI (HOP-92): 46.8 µM
TGI (LOX IMVI): > 100 µM
TGI (OVCAR-3): 49 µM
GI50 (NCI-H226; Homo sapiens, NCI-H226, 48 h): 28.2 µM
GI50 (UACC-257 [4]; Homo sapiens, UACC-257, 48 h): 14.8 µM
TGI (MCF7): 60.3 µM
TGI (SW-620): > 100 µM
GI50 (SNB-19; Homo sapiens, SNB-19, 48 h): 53.7 µM
TGI (ACHN [5]): > 100 µM
TGI (SN12C): > 100 µM
GI50 (CCRF-CEM [6]): 17.4 µM
TGI (T47D): 74.1 µM
TGI (NCI-H322M): > 100 µM
TGI (PC-3): > 100 µM
GI50 (EKVX [7]; Homo sapiens, EKVX, 48 h): 91.2 µM
TGI (UACC-257 [8]): > 100 µM
TGI (DU-145): > 100 µM
TGI (Hs-578T): 24.5 µM
TGI (K562): > 100 µM
GI50 (SK-MEL-28; Homo sapiens, SK-MEL-28, 48 h): 43.7 µM
GI50 (SF-539; Homo sapiens, SF-539, 48 h): 20 µM
GI50 (ACHN [9]; Homo sapiens, ACHN, 48 h): 53.7 µM
GI50 (COLO 205; Homo sapiens, COLO 205, 48 h): 91.2 µM

COC(=O)[C@]12CCC(C)(C)C[C@H]1C1=CC[C@@H]3[C@@]4(C)CC/C(=N\OC(=O)/C=C5/SC(=O)NC5=O)C(C)(C)[C@@H]4CC[C@@]3(C)[C@]1(C)CC2
TGI (CCRF-CEM [1]): 7.76 µM
TGI (EKVX [2]): 22.4 µM
TGI (BT-549): 9.12 µM
TGI (KM12): 12.6 µM
GI50 (HOP-62): 64.6 µM and 20 µM
TGI (SR): 3.89 µM
GI50 (UO-31): 5.75 µM and 1.48 µM
TGI (MDA-MB-231): 7.59 µM
TGI (U-251): 3.39 µM
TGI [3]: 22.9 µM
TGI (UACC-62): 10.2 µM
TGI (HCT-15): 11 µM
TGI (SK-OV-3): 34.7 µM
TGI (SK-MEL-2): 17.8 µM
TGI (NCI-H23): 12.3 µM
TGI (HOP-92): 4.68 µM
TGI (LOX IMVI): 3.09 µM
TGI (OVCAR-3): 3.47 µM
GI50 (NCI-H226): ≥ 100 µM and 12.3 µM
GI50 (UACC-257 [4]): 51.3 µM and 11.5 µM
TGI (MCF7): 10.7 µM
TGI (SW-620): 3.89 µM
GI50 (SNB-19): 56.2 µM and 12.3 µM
TGI (ACHN [5]): 3.39 µM
TGI (SN12C): 18.6 µM
GI50 (CCRF-CEM [6]): 2.45 µM
LC50 (CCRF-CEM [6]): 37.2 µM
TGI (T47D): 18.6 µM
TGI (NCI-H322M): 32.4 µM
TGI (PC-3): 14.1 µM
GI50 (EKVX [7]): 56.2 µM and 6.76 µM
TGI (UACC-257 [8]): 24.5 µM
TGI (DU-145): 17 µM
TGI (Hs-578T): 6.76 µM
TGI (K562): 8.13 µM
GI50 (SK-MEL-28): 7.08 µM and 2.04 µM
GI50 (SF-539): 7.59 µM and 1.78 µM
GI50 (ACHN [9]): 1.74 µM and 6.61 µM
GI50 (COLO 205): 3.47 µM
GI50 (COLO 205; Homo sapiens, COLO 205, 48 h): 2.63 µM
